Legend:
Axl = target: T1, Axl (Homo sapiens, UniProt P30530); experiment: LanthaScreen Eu kinase binding assay, Axl; settings: Tracer 236
T1 construct: purchased Life Technologies
T1 sequence (P30530 26-894): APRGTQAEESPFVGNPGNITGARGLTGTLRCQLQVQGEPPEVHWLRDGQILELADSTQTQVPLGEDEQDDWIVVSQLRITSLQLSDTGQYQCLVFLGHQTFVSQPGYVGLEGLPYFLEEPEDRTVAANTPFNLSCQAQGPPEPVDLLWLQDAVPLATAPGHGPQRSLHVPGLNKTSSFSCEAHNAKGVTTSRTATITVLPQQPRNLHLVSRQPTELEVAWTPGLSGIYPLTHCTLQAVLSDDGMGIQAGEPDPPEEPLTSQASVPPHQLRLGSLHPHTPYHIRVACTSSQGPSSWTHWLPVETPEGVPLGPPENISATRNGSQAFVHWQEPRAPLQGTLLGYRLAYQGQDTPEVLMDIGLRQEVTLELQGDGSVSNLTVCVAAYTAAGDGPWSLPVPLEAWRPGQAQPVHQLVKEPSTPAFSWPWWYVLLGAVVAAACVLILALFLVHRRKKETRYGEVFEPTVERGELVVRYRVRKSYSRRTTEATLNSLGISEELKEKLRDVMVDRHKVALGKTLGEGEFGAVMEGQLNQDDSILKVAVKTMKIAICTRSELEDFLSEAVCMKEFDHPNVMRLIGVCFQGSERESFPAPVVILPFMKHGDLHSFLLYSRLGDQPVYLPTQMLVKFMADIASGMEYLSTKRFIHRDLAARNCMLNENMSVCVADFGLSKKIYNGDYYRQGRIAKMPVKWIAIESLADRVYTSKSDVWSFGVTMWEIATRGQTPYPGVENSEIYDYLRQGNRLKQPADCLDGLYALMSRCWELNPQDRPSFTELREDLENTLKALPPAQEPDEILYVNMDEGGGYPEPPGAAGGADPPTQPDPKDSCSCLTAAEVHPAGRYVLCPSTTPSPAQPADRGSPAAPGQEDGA

Mer = target: T2, Mer (Homo sapiens, UniProt Q12866); experiment: LanthaScreen Eu kinase binding assay, Mer; settings: Tracer 236
T2 construct: purchased Life Technologies
T2 sequence (Q12866 21-999): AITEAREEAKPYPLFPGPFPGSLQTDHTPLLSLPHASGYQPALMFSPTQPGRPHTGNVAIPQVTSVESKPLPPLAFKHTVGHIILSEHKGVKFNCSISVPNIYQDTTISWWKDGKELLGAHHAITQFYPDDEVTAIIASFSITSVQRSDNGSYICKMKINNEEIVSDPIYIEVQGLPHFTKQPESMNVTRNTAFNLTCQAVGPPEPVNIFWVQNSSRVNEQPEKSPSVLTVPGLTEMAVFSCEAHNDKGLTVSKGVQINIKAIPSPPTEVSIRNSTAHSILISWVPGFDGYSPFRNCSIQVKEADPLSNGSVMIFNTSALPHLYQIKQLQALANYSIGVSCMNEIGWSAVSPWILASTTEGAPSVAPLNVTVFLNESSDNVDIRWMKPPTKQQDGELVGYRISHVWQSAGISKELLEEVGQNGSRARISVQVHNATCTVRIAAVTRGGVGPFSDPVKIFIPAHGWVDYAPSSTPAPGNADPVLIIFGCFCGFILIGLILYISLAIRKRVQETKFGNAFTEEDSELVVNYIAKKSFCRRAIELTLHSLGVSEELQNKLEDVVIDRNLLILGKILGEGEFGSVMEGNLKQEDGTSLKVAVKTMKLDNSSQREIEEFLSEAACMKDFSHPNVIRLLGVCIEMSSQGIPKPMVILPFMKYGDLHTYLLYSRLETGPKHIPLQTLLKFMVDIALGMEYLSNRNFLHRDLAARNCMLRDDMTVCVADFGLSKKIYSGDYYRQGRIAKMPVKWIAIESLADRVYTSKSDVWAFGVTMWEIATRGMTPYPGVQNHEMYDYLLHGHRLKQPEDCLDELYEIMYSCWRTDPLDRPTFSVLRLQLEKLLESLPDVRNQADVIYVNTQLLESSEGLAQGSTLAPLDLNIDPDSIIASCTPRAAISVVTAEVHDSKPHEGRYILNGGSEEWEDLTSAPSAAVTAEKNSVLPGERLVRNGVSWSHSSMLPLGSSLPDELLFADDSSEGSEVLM

TYRO3 = target: T3, TYRO3 (Homo sapiens, UniProt Q06418); experiment: LanthaScreen Eu kinase binding assay, TYRO3; settings: Tracer 236
T3 construct: purchased Life Technologies
T3 sequence (Q06418 41-890): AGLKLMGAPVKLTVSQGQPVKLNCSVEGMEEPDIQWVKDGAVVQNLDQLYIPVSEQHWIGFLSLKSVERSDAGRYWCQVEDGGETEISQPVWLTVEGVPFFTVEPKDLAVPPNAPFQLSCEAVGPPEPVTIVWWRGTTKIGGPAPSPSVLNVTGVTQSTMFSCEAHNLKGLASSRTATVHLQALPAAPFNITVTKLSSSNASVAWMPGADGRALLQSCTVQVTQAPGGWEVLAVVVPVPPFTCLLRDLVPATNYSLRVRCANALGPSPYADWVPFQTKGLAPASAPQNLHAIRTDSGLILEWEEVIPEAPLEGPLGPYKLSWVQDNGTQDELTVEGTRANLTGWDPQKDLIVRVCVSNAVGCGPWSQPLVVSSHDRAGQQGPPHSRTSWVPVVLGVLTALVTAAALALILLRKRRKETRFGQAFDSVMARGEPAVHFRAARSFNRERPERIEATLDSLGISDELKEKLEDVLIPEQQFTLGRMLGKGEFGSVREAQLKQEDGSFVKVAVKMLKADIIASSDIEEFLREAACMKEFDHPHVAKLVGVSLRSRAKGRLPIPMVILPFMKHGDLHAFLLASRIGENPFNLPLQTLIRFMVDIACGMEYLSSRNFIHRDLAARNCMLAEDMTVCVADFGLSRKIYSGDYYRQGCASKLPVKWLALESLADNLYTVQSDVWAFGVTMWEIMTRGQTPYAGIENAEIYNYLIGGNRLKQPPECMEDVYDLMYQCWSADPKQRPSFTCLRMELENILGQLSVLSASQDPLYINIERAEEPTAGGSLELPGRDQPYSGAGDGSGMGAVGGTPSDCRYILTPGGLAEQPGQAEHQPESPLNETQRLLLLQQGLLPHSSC

Met = target: T4, Met (Homo sapiens, UniProt P08581); experiment: LanthaScreen Eu kinase binding assay, Met; settings: Tracer 236, read-out: cMet kinase binding activity (Kd)
T4 construct: purchased Life Technologies
T4 sequence (P08581 25-1390): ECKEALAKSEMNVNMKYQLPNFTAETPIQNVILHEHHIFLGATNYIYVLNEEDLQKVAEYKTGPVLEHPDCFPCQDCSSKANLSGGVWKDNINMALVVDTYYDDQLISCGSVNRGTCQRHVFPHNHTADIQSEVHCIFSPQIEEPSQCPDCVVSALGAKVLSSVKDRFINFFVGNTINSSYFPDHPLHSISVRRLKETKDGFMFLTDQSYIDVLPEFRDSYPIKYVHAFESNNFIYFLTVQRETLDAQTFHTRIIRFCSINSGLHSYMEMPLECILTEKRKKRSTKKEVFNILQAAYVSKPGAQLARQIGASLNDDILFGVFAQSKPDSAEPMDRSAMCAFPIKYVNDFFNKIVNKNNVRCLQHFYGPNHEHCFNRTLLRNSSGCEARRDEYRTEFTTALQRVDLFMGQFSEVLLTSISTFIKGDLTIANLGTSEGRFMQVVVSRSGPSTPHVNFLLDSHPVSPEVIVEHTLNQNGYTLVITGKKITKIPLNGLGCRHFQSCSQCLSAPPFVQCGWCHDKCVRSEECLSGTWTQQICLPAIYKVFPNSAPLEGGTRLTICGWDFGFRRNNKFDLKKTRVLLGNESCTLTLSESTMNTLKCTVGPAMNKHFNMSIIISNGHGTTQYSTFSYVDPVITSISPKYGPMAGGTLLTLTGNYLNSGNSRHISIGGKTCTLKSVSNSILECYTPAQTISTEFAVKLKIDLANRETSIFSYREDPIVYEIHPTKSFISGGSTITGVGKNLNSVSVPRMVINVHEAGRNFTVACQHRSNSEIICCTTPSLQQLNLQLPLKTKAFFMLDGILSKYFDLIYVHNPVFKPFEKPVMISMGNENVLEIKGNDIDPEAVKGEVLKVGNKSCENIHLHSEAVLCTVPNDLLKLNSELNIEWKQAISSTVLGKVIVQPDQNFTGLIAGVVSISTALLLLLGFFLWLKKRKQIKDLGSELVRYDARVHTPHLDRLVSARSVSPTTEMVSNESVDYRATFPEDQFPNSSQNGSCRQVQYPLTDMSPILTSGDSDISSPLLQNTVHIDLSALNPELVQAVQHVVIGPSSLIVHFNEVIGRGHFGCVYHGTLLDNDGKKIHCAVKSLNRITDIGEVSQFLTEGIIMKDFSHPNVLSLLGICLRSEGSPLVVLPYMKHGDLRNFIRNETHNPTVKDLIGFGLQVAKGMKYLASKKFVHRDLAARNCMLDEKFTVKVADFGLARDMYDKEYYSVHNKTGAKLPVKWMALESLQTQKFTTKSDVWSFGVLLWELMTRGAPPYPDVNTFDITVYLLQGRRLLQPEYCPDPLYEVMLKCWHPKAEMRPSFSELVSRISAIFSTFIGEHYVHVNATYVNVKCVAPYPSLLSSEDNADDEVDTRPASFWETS

Row | SMILES | Kd (Axl) | Kd (Mer) | Kd (TYRO3) | Kd (Met)
1 | CCOc1cn(C2CCN(C)C2)nc1C(=O)Nc1ccc(Oc2ccnc3cc(OC)c(OC)cc23)cn1 (stereo not drawn) [Compound 74] | 0.1 to 1 µM | < 0.1 µM | 0.1 to 1 µM | 0.1 to 1 µM
2 | CCOc1cn(-c2ncc(F)cc2C#N)nc1C(=O)Nc1ccc(Oc2ccnc3cc(OC)c(OC)cc23)cn1 [Compound 155] | < 0.1 µM | < 0.1 µM | 0.1 to 1 µM | < 0.1 µM
3 | CCOc1cn(CCC(=O)O)nc1C(=O)Nc1ccc(Oc2ccnc3cc(OC)c(OC)cc23)cn1 [Compound 63] | 0.1 to 1 µM | 0.1 to 1 µM | 0.1 to 1 µM | 0.1 to 1 µM
4 | CCOc1cnn(CCOC(F)F)c1C(=O)Nc1ccc(Oc2ccnc3cc(OC)c(OC)cc23)cn1 [Compound 78] | ≥ 1 µM | 0.1 to 1 µM | ≥ 1 µM | 0.1 to 1 µM
5 | CCOc1cnn(-c2cnc(C(F)(F)F)nc2)c1C(=O)Nc1ccc(Oc2ccnc3cc(OC)c(OC)cc23)cn1 [Compound 145] | ≥ 1 µM | ≥ 1 µM | ≥ 1 µM | ≥ 1 µM
6 | CCOc1cnn(C2CCN(C)C2)c1C(=O)Nc1ccc(Oc2ccnc3cc(OC)c(OC)cc23)cn1 (stereo not drawn) [Compound 75] | 0.1 to 1 µM | 0.1 to 1 µM | ≥ 1 µM | 0.1 to 1 µM
7 | CCOc1cn(-c2ccc(F)cc2C)nc1C(=O)Nc1ccc(Oc2ccnc3cc(OC)c(OC)cc23)c(NC(C)C)c1 [Compound 91] | 0.1 to 1 µM | 0.1 to 1 µM | 0.1 to 1 µM | ≥ 1 µM
8 | CCOc1cnn(CC)c1C(=O)Nc1ccc(Oc2ccnc3cc(OC)c(OC)cc23)cn1 [Compound 28] | 0.1 to 1 µM | 0.1 to 1 µM | ≥ 1 µM | 0.1 to 1 µM
9 | CCOc1cnn(C2CCNC2)c1C(=O)Nc1ccc(Oc2ccnc3cc(OC)c(OC)cc23)cn1 (stereo not drawn) [Compound 71] | ≥ 1 µM | 0.1 to 1 µM | ≥ 1 µM | 0.1 to 1 µM
10 | CCOc1cn(-c2ncc(Cl)cc2CN)nc1C(=O)Nc1ccc(Oc2ccnc3cc(OC)c(OC)cc23)cn1 [Compound 134] | 0.1 to 1 µM | < 0.1 µM | ≥ 1 µM | < 0.1 µM
11 | CCOc1cn(-c2cnc(N)nc2)nc1C(=O)Nc1ccc(Oc2ccnc3cc(OC)c(OC)cc23)cc1F [Compound 153] | < 0.1 µM | < 0.1 µM | < 0.1 µM | < 0.1 µM
12 | CCOc1cn(-c2cnc(N)nc2)nc1C(=O)Nc1ccc(Oc2ccnc3cc(OC)c(OC)cc23)c(C)c1 [Compound 140] | < 0.1 µM | < 0.1 µM | 0.1 to 1 µM | < 0.1 µM
13 | CCOc1cnn(-c2ccoc2)c1C(=O)Nc1ccc(Oc2ccnc3cc(OC)c(OC)cc23)cn1 [Compound 25] | 0.1 to 1 µM | ≥ 1 µM | ≥ 1 µM | ≥ 1 µM
14 | CCOc1c(C(=O)Nc2ccc(Oc3ccnc4cc(OC)c(OC)cc34)cn2)nn(-c2cccnc2)c1C [Compound 156] | < 0.1 µM | < 0.1 µM | < 0.1 µM | < 0.1 µM
15 | CCOc1cn(-c2cnc(N)s2)nc1C(=O)Nc1ccc(Oc2ccnc3cc(OC)c(OC)cc23)cn1 [Compound 139] | < 0.1 µM | < 0.1 µM | 0.1 to 1 µM | < 0.1 µM
16 | CCOc1cn(-c2ccc(F)cc2C)nc1C(=O)Nc1csc(Oc2ccnc3cc(OC)c(OC)cc23)n1 [Compound 122] | ≥ 1 µM | ≥ 1 µM | ≥ 1 µM | ≥ 1 µM

Results, then the molecule that gave them:

Row | Kd (Axl) | Kd (Mer) | Kd (TYRO3) | Kd (Met) | SMILES
17 | < 0.1 µM | < 0.1 µM | ≥ 1 µM | < 0.1 µM | CCOc1cn(-c2cnccn2)nc1C(=O)Nc1cc(C)c(Oc2ccnc3cc(OC)c(OC)cc23)cn1 [Compound 163]
18 | < 0.1 µM | < 0.1 µM | ≥ 1 µM | < 0.1 µM | CCOc1cn(-c2cncc(C)n2)nc1C(=O)Nc1ccc(Oc2ccnc3cc(OC)c(OC)cc23)cn1 [Compound 157]
19 | < 0.1 µM | < 0.1 µM | < 0.1 µM | < 0.1 µM | COc1cc2nccc(Oc3ccc(NC(=O)c4nn(-c5cc(F)ccc5Cl)cc4OCC(F)(F)F)nc3)c2cc1OC [Compound 279]
20 | < 0.1 µM | < 0.1 µM | 0.1 to 1 µM | 0.1 to 1 µM | COc1cc2nccc(Oc3ccc(NC(=O)c4nn(-c5ccc(F)c(Cl)c5)cc4OCC(F)(F)F)nc3)c2cc1OC [Compound 278]
21 | < 0.1 µM | < 0.1 µM | 0.1 to 1 µM | < 0.1 µM | CCOc1cn(-c2cnccc2CC(=O)OC)nc1C(=O)Nc1ccc(Oc2ccnc3cc(OC)c(OC)cc23)cn1 [Compound 176]
22 | ≥ 1 µM | 0.1 to 1 µM | ≥ 1 µM | 0.1 to 1 µM | CCOc1cn(-c2cnccn2)nc1C(=O)NC1CC(Oc2ccnc3cc(OC)c(OC)cc23)C1 (stereo not drawn) [Compound 204]
23 | ≥ 1 µM | 0.1 to 1 µM | ≥ 1 µM | ≥ 1 µM | CCOc1cnn(C2CCN(C)CC2)c1C(=O)Nc1ccc(Oc2ccnc3cc(OC)c(OC)cc23)cc1F [Compound 223]
24 | 0.1 to 1 µM | 0.1 to 1 µM | ≥ 1 µM | 0.1 to 1 µM | CCOc1cnn(CC2CCCN(C)C2)c1C(=O)Nc1ccc(Oc2ccnc3cc(OC)c(OC)cc23)cc1F (stereo not drawn) [Compound 216]
25 | 0.1 to 1 µM | 0.1 to 1 µM | ≥ 1 µM | ≥ 1 µM | COc1cc2c(Oc3ccc(NC(=O)c4c(OCC(F)(F)F)cnn4-c4cnc(N)nc4)nc3)ccnc2cc1OC(C)C [Compound 256]
26 | 0.1 to 1 µM | 0.1 to 1 µM | ≥ 1 µM | ≥ 1 µM | CCOc1cn(-c2cncnc2N2CCCC2)nc1C(=O)Nc1ccc(Oc2ccnc3cc(OC)c(OC)cc23)cn1 [Compound 180]
27 | 0.1 to 1 µM | 0.1 to 1 µM | 0.1 to 1 µM | 0.1 to 1 µM | CCOc1cn(CC2CCCN(C)C2)nc1C(=O)Nc1ccc(Oc2ccnc3cc(OC)c(OC)cc23)cc1F (stereo not drawn) [Compound 214]

— patent publication US10934274B2, “Quinoline derivatives as TAM RTK inhibitors” (Qurient Co., Ltd., priority 2015, dated 2021)
